Holding throughout (format): ADME, organism-based
What all share (settings): in vivo

In one data set the test system is Rattus norvegicus. The data set is described as follows: Volume of distribution in Sprague-Dawley rat at 2 mg/kg, iv and po. Also on record: dose 2 mg/kg, route oral.
Data set [1] in a line: Tmax in Sprague-Dawley rat at 2 mg/kg, iv and po. Also on record: dose 2 mg/kg, route oral.
The nature of data set [2]: Cmax in Sprague-Dawley rat at 2 mg/kg, iv and po. Details: dose 2 mg/kg, route oral.
A short description of data set [3]: Bioavailability in Sprague-Dawley rat at 2 mg/kg, iv and po.

On to `CN1Cc2cc(Cl)ccc2-n2c(nnc2C2CCN(c3ccccn3)CC2)C1`, for which the Vd in the data set on Rattus norvegicus worked out at 2.7 L/kg. Further, in data set [1], the Tmax is 48 min. Further, the Cmax in data set [2] stood at 97 ng/mL. In addition, the bioavailability in data set [3] stood at 34%.

Values taken from ChEMBL document CHEMBL1833912, “Discovery of PF-184563, a potent and selective V1a antagonist for the treatment of dysmenorrhoea. The influence of compound flexibility on microsomal stability” (Bioorg Med Chem Lett, 2011).
